{"source": "ChEMBL document CHEMBL4138122", "about": "“Azaphenothiazines - promising phenothiazine derivatives. An insight into nomenclature, synthesis, structure elucidation and biological properties” (Eur J Med Chem, 2017)", "key": {"MCF7 [1]": {"test_system": "MCF7", "experiment": "Growth inhibition of human MCF7 cells at 10 uM", "assay_type": "functional", "settings": "read-out: GI"}, "UO-31 [2]": {"test_system": "UO-31", "experiment": "Growth inhibition of human UO31 cells at 10 uM", "assay_type": "functional", "settings": "read-out: GI"}, "Lipoxygenase": {"target": "Lipoxygenase (Glycine max, UniProt Q39829)", "experiment": "Inhibition of soybean lipoxygenase"}, "Ancylostoma caninum": {"test_system": "Ancylostoma caninum", "experiment": "Anthelmintic activity against dog hookworm larvae infected in mouse assessed as protection against infection rate at 0.06%", "assay_type": "functional"}, "Escherichia coli": {"test_system": "Escherichia coli", "experiment": "Antibacterial activity against Escherichia coli by CLSI protocol based method", "assay_type": "functional"}, "Aspergillus niger": {"test_system": "Aspergillus niger", "experiment": "Antifungal activity against Aspergillus niger by CLSI protocol based method", "assay_type": "functional"}, "Rattus norvegicus [3]": {"test_system": "Rattus norvegicus", "experiment": "Antiinflammatory activity in rat assessed as inhibition of yeast-induced foot edema at 60 mg/kg", "assay_type": "functional"}, "[4]": {"experiment": "Inhibition of lipoxygenase in rat peritoneal cavity resident cells"}, "[5]": {"experiment": "Toxicity in rat assessed as survival rate at 50 mg/kg", "assay_type": "organism-based", "settings": "in vivo"}, "Aspergillus terreus": {"test_system": "Aspergillus terreus", "experiment": "Antimicrobial activity against Aspergillus terreus assessed as reduction in microbial growth at 1 to 10 ppm relative to control", "assay_type": "functional"}, "Candida albicans": {"test_system": "Candida albicans", "experiment": "Antimicrobial activity against Candida albicans assessed as reduction in […] growth at 500 to 1000 ppm relative to control", "assay_type": "functional"}, "Staphylococcus aureus": {"test_system": "Staphylococcus aureus", "experiment": "Antimicrobial activity against Staphylococcus aureus assessed as reduction in bacterial growth at 500 to 1000 ppm relative to control", "assay_type": "functional"}, "Bacillus subtilis": {"test_system": "Bacillus subtilis", "experiment": "Antimicrobial activity against Bacillus subtilis assessed as reduction in microbial growth at 1 to 10 ppm relative to control", "assay_type": "functional"}, "[6]": {"test_system": "Trichophyton mentagrophytes", "experiment": "Antimicrobial activity against Trichophyton mentagrophytes assessed as reduction in microbial growth at 1 to 10 ppm relative to control", "assay_type": "functional"}, "HepG2": {"test_system": "HepG2", "experiment": "cells", "settings": "Homo sapiens, HepG2, 72 h", "description": "Cytotoxicity against human HepG2 cells assessed as inhibition of cell growth after 72 hrs by SRB assay"}, "PC-3 [7]": {"test_system": "PC-3", "experiment": "Cytotoxicity against human PC3 cells assessed as inhibition of cell growth after 72 hrs by SRB assay", "assay_type": "functional, cell-based", "settings": "PC-3, 72 h"}, "MCF7 [8]": {"test_system": "MCF7", "experiment": "Cytotoxicity against human MCF7 cells assessed as inhibition of cell growth after 72 hrs by SRB assay", "assay_type": "functional, cell-based", "settings": "MCF7, 72 h"}, "HCT-116": {"test_system": "HCT-116", "experiment": "Cytotoxicity against human HCT116 cells assessed as inhibition of cell growth after 72 hrs by SRB assay", "assay_type": "functional, cell-based", "settings": "HCT-116, 72 h"}, "UO-31 [9]": {"test_system": "UO-31", "experiment": "Cytotoxicity against human UO31 cells assessed as cell growth inhibition at 2.1 ug/ml after 48 hrs by SRB assay", "assay_type": "functional", "settings": "UO-31, 48 h, read-out: GI"}, "EKVX": {"test_system": "EKVX", "experiment": "Cytotoxicity against human EKVX cells assessed as cell growth inhibition at 2.1 ug/ml after 48 hrs by SRB assay", "assay_type": "functional, cell-based"}, "[10]": {"experiment": "Inhibition of LTB4 formation in rat polymorphonuclear leukocytes preincubated for 2 mins followed by A-23187 addition after 4 mins", "assay_type": "functional, cell-based"}, "Trachea": {"test_system": "Trachea", "experiment": "Inhibition of egg albumin antigen challenge-induced contraction response in methacholine-primed guinea pig trachea at 10 ug/ml", "assay_type": "functional", "settings": "Cavia porcellus"}, "Rattus norvegicus [11]": {"test_system": "Rattus norvegicus", "experiment": "Inhibition of PAF-induced hyperalgesia in Sprague-Dawley rat at 10 mg/kg, po dosed 30 mins prior to PAF challenge and measured 1 to 4 hours post PAF challenge", "assay_type": "functional"}, "RXF 393": {"test_system": "RXF 393", "experiment": "Cytotoxicity against human RXF393 cells assessed as cell growth inhibition after 48 hrs by SRB assay", "assay_type": "functional, cell-based", "settings": "RXF 393, 48 h"}, "OVCAR-3": {"test_system": "OVCAR-3", "experiment": "Cytotoxicity against human OVCAR3 cells assessed as cell growth inhibition after 48 hrs by SRB assay", "assay_type": "functional, cell-based", "settings": "OVCAR-3, 48 h"}, "MCF7 [12]": {"test_system": "MCF7", "experiment": "Cytotoxicity against human MCF7 cells assessed as cell growth inhibition after 48 hrs by SRB assay", "assay_type": "functional, cell-based", "settings": "MCF7, 48 h"}, "SF-268": {"test_system": "SF-268", "experiment": "Cytotoxicity against human SF268 cells assessed as cell growth inhibition after 48 hrs by SRB assay", "assay_type": "functional, cell-based", "settings": "SF-268, 48 h"}, "SR": {"test_system": "SR", "experiment": "Cytotoxicity against human SR cells assessed as cell growth inhibition after 48 hrs by SRB assay", "assay_type": "functional, cell-based"}, "COLO 205": {"test_system": "COLO 205", "experiment": "Cytotoxicity against human COLO205 cells assessed as cell growth inhibition after 48 hrs by SRB assay", "assay_type": "functional, cell-based", "settings": "COLO 205, 48 h"}, "NCI-H460": {"test_system": "NCI-H460", "experiment": "Cytotoxicity against human NCI-H460 cells assessed as cell growth inhibition after 48 hrs by SRB assay", "assay_type": "functional, cell-based", "settings": "NCI-H460, 48 h"}, "Malme-3M": {"test_system": "Malme-3M", "experiment": "Cytotoxicity against human MALME-3M cells assessed as cell growth inhibition after 48 hrs by SRB assay", "assay_type": "functional, cell-based"}, "PC-3 [13]": {"test_system": "PC-3", "experiment": "Cytotoxicity against human PC3 cells assessed as cell growth inhibition after 48 hrs by SRB assay", "assay_type": "functional, cell-based", "settings": "PC-3, 48 h"}, "SK-MEL-5": {"test_system": "SK-MEL-5", "experiment": "Cytotoxicity against human SK-MEL-5 cells assessed as cell growth inhibition after 48 hrs by SRB assay", "assay_type": "functional, cell-based", "settings": "SK-MEL-5, 48 h"}, "[14]": {"test_system": "Mycobacterium tuberculosis", "experiment": "Antitubercular activity against Mycobacterium tuberculosis H37Rv assessed as inhibition of bacterial growth at 6.25 ug/ml", "assay_type": "functional", "settings": "read-out: GI"}, "[15]": {"test_system": "Mycobacterium tuberculosis", "experiment": "Antitubercular activity against Mycobacterium tuberculosis H37Rv", "assay_type": "functional"}}}
{"molecule": "Clc1ccc(N2c3nc4ccccc4cc3Sc3cc4ccccc4nc32)cc1", "values": [{"measurement": "inhibition of growth at 10 µM", "setting": "MCF7 [1]", "result": 63, "unit": "%"}, {"measurement": "inhibition of growth at 10 µM", "setting": "UO-31 [2]", "result": "57 to 73", "unit": "%"}]}
{"molecule": "CCCc1nc(N2CCN(C)CC2)nc2c1Nc1ccccc1S2", "values": [{"measurement": "IC50", "setting": "Lipoxygenase", "result": 8.9, "unit": "µM"}]}
{"molecule": "Clc1nc2c(nc1Cl)Sc1ccccc1N2", "values": [{"measurement": "Activity", "setting": "Ancylostoma caninum", "result": 90, "unit": "%"}]}
{"molecule": "CCSc1ncc2c(n1)N=c1c(Cl)c3c(c(Cl)c1S2)=Nc1nc(SCC)nc(O)c1S3", "values": [{"measurement": "MIC", "setting": "Escherichia coli", "result": 169, "unit": "µg/mL"}, {"measurement": "MIC", "setting": "Aspergillus niger", "result": 138, "unit": "µg/mL"}]}
{"molecule": "Cn1c(=O)nc2sc3ccccc3nc-2c1=O", "values": [{"measurement": "inhibition in vivo at 60 mg/kg", "setting": "Rattus norvegicus [3]", "result": 69, "unit": "%"}, {"measurement": "IC50", "setting": "[4]", "result": 1.4, "unit": "µM"}, {"measurement": "survival", "setting": "[5]", "result": 69, "unit": "%"}]}
{"molecule": "[O-][S+]1c2ccccc2Nc2nc(Cl)c(Cl)nc21", "note": "(stereo unspecified)", "values": [{"measurement": "inhibition (INH)", "setting": "Aspergillus terreus", "result": 100, "unit": "%"}, {"measurement": "inhibition (INH)", "setting": "Candida albicans", "result": 100, "unit": "%"}, {"measurement": "inhibition (INH)", "setting": "Staphylococcus aureus", "result": 100, "unit": "%"}, {"measurement": "inhibition (INH)", "setting": "Bacillus subtilis", "result": 100, "unit": "%"}, {"measurement": "inhibition (INH)", "setting": "[6]", "result": 100, "unit": "%"}]}
{"molecule": "COc1ccc(-c2c3c(N)c4c(nc3nc3[nH]nc(-c5ccccc5)c23)Sc2ccccc2N4)cc1", "values": [{"measurement": "IC50", "setting": "HepG2", "result": 19.1, "unit": "µM"}, {"measurement": "IC50", "setting": "PC-3 [7]", "result": "34.5 to 36.5", "unit": "µM"}, {"measurement": "IC50", "setting": "MCF7 [8]", "result": "34.5 to 36.5", "unit": "µM"}, {"measurement": "IC50", "setting": "HCT-116", "result": "34.5 to 36.5", "unit": "µM"}]}
{"molecule": "CN1c2ccncc2Sc2ccncc21", "values": [{"measurement": "inhibition of growth at 2.1 µg/mL", "setting": "UO-31 [9]", "result": 60, "unit": "%"}, {"measurement": "inhibition of growth at 2.1 µg/mL", "setting": "EKVX; read-out: GI", "result": 51, "unit": "%"}]}
{"molecule": "c1ccc2c(c1)Nc1nccnc1S2", "values": [{"measurement": "IC50", "setting": "[10]", "result": "1 to 5", "unit": "µg/mL"}, {"measurement": "inhibition at 10 µg/mL", "setting": "Trachea", "result": 85, "unit": "%"}, {"measurement": "inhibition in vivo at 10 mg/kg", "setting": "Rattus norvegicus [11]", "result": 70, "unit": "%"}]}
{"molecule": "[Cl-].c1ccc2nc3c(cc2c1)Sc1cc2ccccc2[n+]2c1N3CC2", "values": [{"measurement": "IC50", "setting": "RXF 393", "result": 5, "unit": "µg/mL"}, {"measurement": "IC50", "setting": "OVCAR-3", "result": 7.8, "unit": "µg/mL"}, {"measurement": "IC50", "setting": "MCF7 [12]", "result": 3.2, "unit": "µg/mL"}, {"measurement": "IC50", "setting": "SF-268", "result": 8.5, "unit": "µg/mL"}, {"measurement": "IC50", "setting": "SR", "result": 4.9, "unit": "µg/mL"}, {"measurement": "IC50", "setting": "COLO 205", "result": 1.3, "unit": "µg/mL"}, {"measurement": "IC50", "setting": "NCI-H460", "result": 7.4, "unit": "µg/mL"}, {"measurement": "IC50", "setting": "EKVX", "result": 7.6, "unit": "µg/mL"}, {"measurement": "IC50", "setting": "Malme-3M", "result": 1.3, "unit": "µg/mL"}, {"measurement": "IC50", "setting": "PC-3 [13]", "result": 10, "unit": "µg/mL"}, {"measurement": "IC50", "setting": "SK-MEL-5", "result": 1.5, "unit": "µg/mL"}]}
{"molecule": "O=c1[nH]c2c(Cl)ccc(Cl)c2c2c1Sc1cc(Cl)ccc1N2", "values": [{"measurement": "inhibition of growth at 6.25 µg/mL", "setting": "[14]", "result": 67, "unit": "%"}, {"measurement": "MIC", "setting": "[15]", "result": "> 6.25", "unit": "µg/mL"}]}
